According to patent US10226474B2, “Methods and compositions for treatment of non-alcoholic steatohepatitis” (Temple University—Of The Commonwealth System of Higher …, priority 2017, dated 2019):
Like-named read-outs stand apart in the source and are kept apart here.

Legend:
[1] = test system: NASH patients; details: oral dose of 150 mg, one year, cited from earlier work
[2] = test system: mouse diabetic model; details: U.S. Pat. No. 8,431,555; cited from earlier work
[3] = test system: DIAMOND™ mouse model of NASH; assay: Efficacy of fluasterone in the DIAMOND mouse model of NASH (Western Diet Sugar Water); assay type: in vivo; details: for mice progressed to measurable fibrosis by NASH CRN score: 24 week WDSW group 5/10
Experimental: DIAMOND™ (Diet Induced Animal Model of Non-alcoholic fatty liver Disease) mouse model is a mouse model of NASH. This mouse model was used to assess the effect of fluasterone. The drug formulation (subcutaneous injectable formulation) contained fluasterone as an active pharmaceutical ingredient in a vehicle. The vehicle contained RO (reverse osmosis) water mixed with sterile saline solution and 5% Tween-80. The drug formulation was prepared as follows: micronized powder of fluasterone (submicron range particles of fluasterone) was suspended in the vehicle and vortexed to evenly suspend. Two doses of fluasterone were used and compared to vehicle controls and positive and negative natural history controls to determine the impact on weight gain, fatty liver, steatohepatitis, and the progression to fibrosis. The two different doses of fluasterone used were (i) a low dose (LD) fluasterone (5 mg fluasterone/kg body weight) for 8 weeks and (ii) a high dose (HD) fluasterone (20 mg fluasterone/kg body weight) for 8 weeks. Vehicle Control was sterile saline with 5% Tween-80. The other details are as follows: (1) Animal Species: DIAMOND™ Mice (Male C57BL/6J(B6)-129s1/SvImJ(S129)). (2) Positive Control and Treatment Groups' food and drinking water: (a) Food—Western Diet ENVIGO Harlan/Teklad 42% Adjusted Calories from Fat (TD. 88137), and (b) RO Water—Sugar Water—D-fructose Alfa Aesar #A17718 and D-glucose Water—Fisher Scientific #D19-212; Recipe=231 g Fructose+189 g Glucose+750 ml RO (reverse osmosis) water Diluted into 9 L RO Water. This diet is referred to herein as Western Diet Sugar Water (WDSW). (3) Negative Control Group's food and drinking water: (a) Normal Mouse Chow Diet—ENVIGO Harlan/Teklad Normal Rodent Chow (TD 7012 Teklad LM-485), and (b) RO water. This diet is referred to herein interchangeably as Normal Diet Normal Water (NDNW) and Normal Chow Normal Water (NCNW).
Eight-two (82) DIAMOND™ mice were put on the special diet WDSW (high fat diet (Harlan/Teklad 42% fat) and sweetened water (D-Fructose and D-Glucose)) at time point 0 (t=0) (at eight weeks of age). Mice were weighed weekly. Of these, 10 mice were injected subcutaneously with fluasterone at concentration 5 mg/kg and 10 mice were injected subcutaneously with fluasterone at concentration 20 mg/kg, and 5 mice in a staggered group were injected with vehicle starting at 16 weeks on diet (t=16) until 24 weeks (t=24), as described in “Subcutaneous Injection.” For baseline controls, 8 male DIAMOND™ mice were placed on the WDSW at eight weeks of age and given no treatment; these were the positive natural history controls. A second group of 8 male DIAMOND™ mice were continued on the NCNW/NDNW at eight (8) weeks and these were the negative natural history control group. The mice were weighed weekly. At 16, 20, and 24 weeks on diet, fasting insulin was measured in serum from tail vein nick. HOMA-IR scores were calculated. 8 mice on WDSW and 8 mice NDNW were sacrificed at 16 weeks (t=16) on diet as baseline positive and negative controls. 8 mice on WDSW and 8 mice NDNW were sacrificed at 24 weeks (t=24). Carbon dioxide was used as an anesthetic and a cardiac puncture was performed for exsanguination. Cervical dislocation was performed as a secondary means of euthanasia.
As discussed above, the drug formulation used in this experiment contained fluasterone as an active pharmaceutical ingredient in a vehicle. The vehicle contained RO water mixed with sterile saline solution and 5% Tween-80.
Body Weights: Mice were weighed weekly and the weights determined the amount of test compound administered.
Subcutaneous Injection: The mice received a subcutaneous injection 1× daily. In summary, mice were grasped at the scruff of the neck and a suitable place was selected for the injection. The injection site was moved daily to ensure limited distress to the animal. […]

[4] = test system: TPA-stimulated epidermal hyperplasia in mouse skin; details: cited from earlier work
[5] = test system: NASH patients; details: obeticholic acid treatment; cited from earlier work
[6] = test system: Nonalcoholic Steatohepatitis patients; details: PIVENS histologic response criteria; 0.025 considered statistically significant; cited from earlier work

Compound: CSc1ccc(C(=O)/C=C/c2cc(C)c(OC(C)(C)C(=O)O)c(C)c2)cc1 [GFT 505]
- improvement in histologically-assessed NASH vs. placebo ([1]; all patients): failed to produce a statistically significant improvement
- improvement in histologically-assessed NASH vs. placebo ([1]; patients with the mildest form of NASH (NAS<3) excluded): statistically significant improvement vs. placebo

Compound: C[C@]12CCCCC1=CC[C@@H]1[C@@H]2CC[C@]2(C)C(=O)[C@H](F)C[C@@H]12 [fluasterone, 16α-fluoro-5-androsten-17-one]
- hyperglycemia [2]: effective in reducing hyperglycemia
- fasting blood ketones at necropsy ([3]; both low dose 5 mg/kg (P 0.01) and high dose 20 mg/kg (P 0.0005) vs 24 weeks WDSW): significantly lower
- fasting blood glucose ([3]; both low dose 5 mg/kg and high dose 20 mg/kg s.c., 8 weeks, vs 24 weeks WDSW, P 0.003 each (FIG. 3)): significantly improved
- SAF Activity score ([3]; both treatment groups vs 24 week positive controls, high dose P<0.039, low dose P<0.008 (FIG. 17)): improved the SAF scores
- NAS score ([3]; both treatment groups vs 24 week positive controls, high dose P<0.05, low dose P<0.001 (FIG. 18)): improved the NAS score
- lobular inflammation ([3]; both treatment groups vs 24 weeks WDSW, high dose P<0.01, low dose P<0.032 (FIG. 14)): significantly reduced inflammation
- serum triglycerides ([3]; fluasterone-treated mice vs WDSW): no significant difference
- total serum cholesterol ([3]; fluasterone-treated mice vs WDSW positive controls, low dose P=0.0504): lower total serum cholesterol
- liver weight vs WDSW positive control ([3]; high dose 20 mg/kg s.c. 1x daily for 8 weeks (weeks 16-24 on WDSW), P=0.054): smaller livers compared to the WDSW 24 wk control group
- fibrosis (NASH CRN) ([3]; high dose 20 mg/kg vs 24 week positive controls, P=0.15): not statistically less fibrotic although there was a trend
- alkaline phosphatase (ALP) ([3]; high dose 20 mg/kg vs WDSW control, P=0.058): strong trend to improvement
- mice that progressed to NASH ([3]; high dose 20 mg/kg, 24 week WDSW control 10/10, baseline (16 weeks) 5/10): 5/10
- mice progressed to measurable fibrosis by NASH CRN score ([3]; high dose 20 mg/kg): 2/10
- perisinusoidal fibrosis ([3]; high dose 20 mg/kg, P value of 0.052): almost statistically significant
- fasting insulin (ELISA) ([3]; low and high dose groups vs WDSW positive control, baseline (16 weeks) and end of study (24 weeks)): not statistically significant between drug treated groups and WDSW positive control
- HOMA IR ([3]; low and high dose groups vs positive WDSW control, data not shown): comparable between the positive WDSW control and the drug treated groups
- steatosis grade ([3]; low and high dose groups vs positive controls): neither treatment group had improved steatosis grade
- necropsy body weight ([3]; low dose 5 mg/kg and high dose 20 mg/kg s.c., 8 weeks, vs 24 week WDSW): comparable to the 24 week positive WDSW controls
- liver weight vs WDSW positive control ([3]; low dose 5 mg/kg s.c. 1x daily for 8 weeks (weeks 16-24 on WDSW), P=0.12): smaller livers than the WDSW positive control group, however the difference was not statistically significant
- AST ([3]; low dose 5 mg/kg vs 24 week WDSW, P=0.10): statistically significant drop in AST
- hepatocyte ballooning ([3]; low dose 5 mg/kg vs 24 week positive control, P=0.026): statistically less ballooning
- fibrosis (NASH CRN) ([3]; low dose 5 mg/kg vs 24 week positive controls, P=0.057): lower than the 24 week positive controls
- alkaline phosphatase (ALP) ([3]; low dose 5 mg/kg vs WDSW control, P=0.01): significantly lower
- steatosis percentage ([3]; low dose 5 mg/kg vs positive controls, P=0.032): statistically significantly less steatosis percentage
- mice that developed NASH ([3]; low dose 5 mg/kg, 24 week WDSW control 10/10, baseline (16 weeks) 5/10): 7/10
- mice progressed to measurable fibrosis by NASH CRN score ([3]; low dose 5 mg/kg): 1/10
- perisinusoidal fibrosis ([3]; low dose 5 mg/kg, P=0.002): significantly less perisinusoidal fibrosis
- ALT ([3]; treated mice vs 24 week positive control, P 0.11 (low dose) and 0.051 (high dose)): strong trend towards improved ALT (lower ALT)
- effective dose abolishing TPA-stimulated epidermal hyperplasia ([4]; oral): at least 200 mg/kg
- lowest effective dose abolishing TPA-stimulated epidermal hyperplasia ([4]; subcutaneous injection): 2.5 mg/kg

Compound: CC[C@H]1[C@@H](O)[C@@H]2[C@H](CC[C@]3(C)[C@@H]([C@H](C)CCC(=O)O)CC[C@@H]23)[C@@]2(C)CC[C@@H](O)C[C@@H]12 [obeticholic acid]
- insulin sensitivity [5]: decrease in insulin sensitivity
- plasma LDL and total cholesterol [5]: significant increase

Compound: Vitamin E
- histologic improvement compared with placebo [6]: significant histologic improvement compared with placebo
